The record followed here is PubChem BioAssay (NCI).

The structures appear in SMILES notation.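 Cells were grown in 96-well plates and exposed to each compound for 48 hours at five concentrations; endpoints were interpolated linearly between bracketing concentrations, or set to the highest concentration if not reached. At the GI50, growth is halved. TGI marks complete inhibition of growth.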

Test systems include MALME-3M melanoma; OVCAR-3 ovarian; DU-145 prostate; OVCAR-5 ovarian; SK-MEL-5 melanoma; SNB-19 CNS; K-562 leukemia; SR leukemia; UACC-62 melanoma; T-47D breast.
Common to all, as to experiment: NCI anticancer screen, dose series, 48 h

Take `NC1(Cc2ccc(Cl)cc2)CCN(c2ncnc3[nH]ccc23)CC1`: the GI50 with MALME-3M melanoma was 6.3 µM; in the assay with OVCAR-3 ovarian, 11.7 µM; in the assay on DU-145 prostate it was 9.37 µM; in the assay with OVCAR-5 ovarian, 8.33 µM; in the assay with SK-MEL-5 melanoma, 14.9 µM; with SNB-19 CNS, 5.33 µM. Further, the GI50 in the assay on K-562 leukemia is 4.66 µM; in the assay on SR leukemia it was 4.2 µM; in the assay on UACC-62 melanoma it was 5.85 µM; in the assay on T-47D breast it was 1.59 µM. Besides, the TGI amounted to 21.6 µM in the assay with MALME-3M melanoma; 25 µM in the assay on OVCAR-3 ovarian; 25.1 µM in the assay on DU-145 prostate; 43.6 µM with OVCAR-5 ovarian; 28.2 µM with SK-MEL-5 melanoma; 21.3 µM with SNB-19 CNS. Also, the TGI in the assay on K-562 leukemia amounted to 19.4 µM; with SR leukemia, 31.4 µM; in the assay on UACC-62 melanoma, 20.4 µM; in the assay on T-47D breast it was 14.7 µM.

`COc1ccc(CCN2CCC(CN(C)Cc3cnn(-c4ccccc4)c3)CC2)cc1`: the GI50 was 2.08 µM in the assay with MALME-3M melanoma; 20.4 µM in the assay on OVCAR-3 ovarian; 37 µM with DU-145 prostate; 14.8 µM in the assay on OVCAR-5 ovarian; 3.96 µM with SK-MEL-5 melanoma; 21.2 µM in the assay on SNB-19 CNS. Besides, the GI50 with K-562 leukemia was 3.14 µM; in the assay with SR leukemia it was 3.92 µM; in the assay with UACC-62 melanoma, 2.63 µM; in the assay on T-47D breast it was 10.4 µM. The TGI in the assay with MALME-3M melanoma was 4.29 µM; in the assay with OVCAR-3 ovarian, 52.4 µM; with DU-145 prostate, greater than 100 µM; in the assay with OVCAR-5 ovarian it was 58.3 µM; in the assay with SK-MEL-5 melanoma it was 14.9 µM; in the assay with SNB-19 CNS, 66 µM. The TGI in the assay on K-562 leukemia was 10.9 µM; in the assay on SR leukemia, 25.2 µM; with UACC-62 melanoma, 7.36 µM; in the assay on T-47D breast, 30.7 µM.

Take `CC(C)(C)OC(=O)NCc1cccc(N=C=S)c1`: the GI50 was 14.4 µM with MALME-3M melanoma; 16.4 µM with OVCAR-3 ovarian; 22.7 µM in the assay with DU-145 prostate; 20.6 µM in the assay on OVCAR-5 ovarian; 14.9 µM in the assay with SK-MEL-5 melanoma; 17.6 µM in the assay with SNB-19 CNS. Also, the GI50 with K-562 leukemia was 28.4 µM; with SR leukemia it was 20 µM; with UACC-62 melanoma it was 14.4 µM; with T-47D breast, 16.5 µM. Besides, the TGI in the assay with MALME-3M melanoma worked out at 45.1 µM; with OVCAR-3 ovarian it was 31.2 µM; in the assay with DU-145 prostate it was 59.2 µM; in the assay with OVCAR-5 ovarian, 74.9 µM; in the assay on SK-MEL-5 melanoma it was 28.4 µM; with SNB-19 CNS it was 44.7 µM. Further, the TGI in the assay on K-562 leukemia was greater than 88.2 µM; with SR leukemia, greater than 81.9 µM; in the assay on UACC-62 melanoma, 30.6 µM; with T-47D breast it was 36.6 µM.

Regarding `COC1CC(N)C(O)C(C)O1` (stereo not drawn), the TGI in the assay with MALME-3M melanoma, in the assay on OVCAR-3 ovarian, in the assay on DU-145 prostate, with OVCAR-5 ovarian, in the assay on SK-MEL-5 melanoma and in the assay with SNB-19 CNS was greater than 100 µM in each case. For the same compound, the TGI with K-562 leukemia, in the assay with SR leukemia, in the assay with UACC-62 melanoma and in the assay with T-47D breast was greater than 100 µM in each case.

On to `CN1CCN(c2nc(-c3csc(-c4cccs4)n3)cc3ccccc23)CC1`, for which the GI50 with MALME-3M melanoma was 1.65 µM; in the assay on OVCAR-3 ovarian, 1.84 µM; in the assay with DU-145 prostate it was 1.8 µM; in the assay on OVCAR-5 ovarian, 1.66 µM; in the assay on SK-MEL-5 melanoma, 1.71 µM; with SNB-19 CNS it was 2.14 µM. In addition, the GI50 in the assay on K-562 leukemia is 2.16 µM; with SR leukemia it was 3.1 µM; with UACC-62 melanoma, 1.69 µM; in the assay with T-47D breast, 1.85 µM. In addition, the TGI in the assay on MALME-3M melanoma stood at 3.12 µM; with OVCAR-3 ovarian, 3.64 µM; in the assay with DU-145 prostate, 3.34 µM; in the assay on OVCAR-5 ovarian, 3.13 µM; in the assay with SK-MEL-5 melanoma, 3.12 µM; with SNB-19 CNS, 5.36 µM. Also, the TGI with K-562 leukemia amounted to 4.92 µM; in the assay with UACC-62 melanoma it was 3.15 µM; with T-47D breast, 4.56 µM.

For `CC1(C)Cc2c(Br)c(Br)c(Br)c(OCC(O)CN3CCN(c4ccccn4)CC3)c2O1` (stereo not drawn), the GI50 in the assay on MALME-3M melanoma was 17 µM; in the assay with OVCAR-3 ovarian, 9.54 µM; in the assay with DU-145 prostate, 14.4 µM; in the assay on OVCAR-5 ovarian it was 16.2 µM; with SK-MEL-5 melanoma it was 10.8 µM; with SNB-19 CNS, 20.8 µM. The GI50 with K-562 leukemia was 4.1 µM; with SR leukemia it was 4.38 µM; in the assay with UACC-62 melanoma, 14.1 µM; in the assay on T-47D breast it was 18.3 µM. Besides, the TGI with MALME-3M melanoma was determined as 36.9 µM; with OVCAR-3 ovarian, 23.4 µM; in the assay on DU-145 prostate, 30.6 µM; with OVCAR-5 ovarian, 31.3 µM; in the assay with SK-MEL-5 melanoma it was 23.1 µM; in the assay on SNB-19 CNS it was 49.6 µM. In addition, the TGI is 20.3 µM with K-562 leukemia, 24.7 µM with SR leukemia, 28.1 µM in the assay with UACC-62 melanoma and greater than 100 µM in the assay on T-47D breast.

Take `COc1cc2c(c(OC)c1OC)-c1ccc(N=NC(N)=S)c(=O)cc1[C@@H](NC(C)=O)CC2`: the TGI is greater than 100 µM in the assay on MALME-3M melanoma; 0.642 µM with OVCAR-3 ovarian; 4.66 µM with DU-145 prostate; greater than 100 µM with OVCAR-5 ovarian; 1.24 µM in the assay with SK-MEL-5 melanoma; greater than 100 µM in the assay on SNB-19 CNS. Also, the TGI with K-562 leukemia, in the assay with SR leukemia, with UACC-62 melanoma and in the assay on T-47D breast was greater than 100 µM in each case. Moreover, the GI50 is 0.263 µM with OVCAR-3 ovarian; 0.655 µM in the assay with DU-145 prostate; 2.26 µM with OVCAR-5 ovarian; 0.324 µM in the assay with SK-MEL-5 melanoma; 0.578 µM with SNB-19 CNS; 0.425 µM in the assay on K-562 leukemia. The GI50 was 0.408 µM with SR leukemia, 0.646 µM in the assay on UACC-62 melanoma and 0.361 µM with T-47D breast.

With `N#CC(C#N)=C/C=C(\Sc1ccc(F)cc1Cl)c1ccc(Cl)cc1`, the GI50 in the assay with MALME-3M melanoma was 0.406 µM; with OVCAR-3 ovarian, 0.762 µM; in the assay on DU-145 prostate, 0.657 µM; in the assay with OVCAR-5 ovarian, 0.605 µM; in the assay on SK-MEL-5 melanoma, 2.59 µM; in the assay on SNB-19 CNS it was 4.54 µM. Moreover, the GI50 in the assay with K-562 leukemia was 0.432 µM; with SR leukemia, 0.0756 µM; in the assay on UACC-62 melanoma, 2.18 µM; with T-47D breast, 0.659 µM. Besides, the TGI is 1.72 µM in the assay with MALME-3M melanoma; 2.64 µM in the assay on OVCAR-3 ovarian; 8.55 µM with DU-145 prostate; 2.61 µM in the assay on OVCAR-5 ovarian; 8.58 µM in the assay with SK-MEL-5 melanoma; 23.6 µM with SNB-19 CNS. Moreover, the TGI in the assay with K-562 leukemia was greater than 100 µM; in the assay on SR leukemia, greater than 100 µM; with UACC-62 melanoma it was 6.16 µM; with T-47D breast, 5.19 µM.
